{"source": "ChEMBL document CHEMBL1139944", "about": "“Synthesis and evaluation of new difluoromethyl azoles as antileishmanial agents” (Eur J Med Chem, 2007)"}
{"system": "Leishmania amazonensis", "assay": "Antileishmanial activity against Leishmania amazonensis promastigote by MTT method", "type": "functional, organism-based", "units": {"IC50": "nM"}}
{"smiles": "O=Cc1cn(-c2cccc(Cl)c2)nn1", "IC50": 2800}
{"smiles": "FC(F)c1cn(-c2cccc(Cl)c2)nn1", "IC50": 2600}
{"smiles": "Cc1ncc(C(F)F)n1-c1ccc(Cl)cc1", "IC50": 1700}
